Values of other authors as cited in patent US9511027B1, “Calcium supplement having enhanced absorption” (Delavau L.L.C., priority 2006, dated 2016).

## [Ca+2] [calcium]
9 to 18 year olds, Wastney et al. 1996
  percent absorption: 38%
adults, basis of the AIs of 1,000 mg and 1,200 mg, Heaney et al. 1988
  elemental calcium absorbed: about 30%
